In patent publication US7816522B2, “Triazolone derivatives” (Eisai Co., Ltd., priority 2006, dated 2010):
Where a name gives a salt, the structure may show the parent alone.

Target: T1, human clotting factor VIIa (Homo sapiens, UniProt P08709)
T1 construct: a human clotting factor VIIa (hereinafter, “Factor VIIa”) purified sample; purchased Enzyme Research Laboratories HFVIIa
Assay: Inhibitory activity against clotting factor VIIa (chromogenic substrate Spectrozyme FVIIa, TF/Factor VIIa enzyme solution)
Type: biochemical
Conditions: human Factor VIIa 5 nmol/L with human TF 10 nmol/L, room temperature 40 minutes, 405 nm
Method in brief: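 Human Factor VIIa (5 nmol/L) with human TF (10 nmol/L) in Tris-BSA buffer pH 7.4 containing 15 mmol/L CaCl2 and cephalin, with Spectrozyme FVIIa substrate. Reaction 40 min at room temperature; 4-nitroanilide read at 405 nm. IC50 by non-linear regression over 100 μmol/L–0.1 nmol/L.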

T1 sequence (P08709 213-466 limits assumed): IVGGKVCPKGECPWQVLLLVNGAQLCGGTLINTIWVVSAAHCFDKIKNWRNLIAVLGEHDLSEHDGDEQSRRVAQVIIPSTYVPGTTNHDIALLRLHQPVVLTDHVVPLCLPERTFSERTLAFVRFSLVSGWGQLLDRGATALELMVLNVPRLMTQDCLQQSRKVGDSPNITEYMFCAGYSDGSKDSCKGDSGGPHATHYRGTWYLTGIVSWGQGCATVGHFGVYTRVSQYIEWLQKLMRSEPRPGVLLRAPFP
T1 sequence (P08709 61-212 limits assumed): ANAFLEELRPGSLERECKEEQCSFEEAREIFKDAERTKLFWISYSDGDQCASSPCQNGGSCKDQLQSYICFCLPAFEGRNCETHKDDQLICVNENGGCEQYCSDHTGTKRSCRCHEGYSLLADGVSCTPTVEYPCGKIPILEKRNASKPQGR
T1 sequence (P13726 33-295 partner): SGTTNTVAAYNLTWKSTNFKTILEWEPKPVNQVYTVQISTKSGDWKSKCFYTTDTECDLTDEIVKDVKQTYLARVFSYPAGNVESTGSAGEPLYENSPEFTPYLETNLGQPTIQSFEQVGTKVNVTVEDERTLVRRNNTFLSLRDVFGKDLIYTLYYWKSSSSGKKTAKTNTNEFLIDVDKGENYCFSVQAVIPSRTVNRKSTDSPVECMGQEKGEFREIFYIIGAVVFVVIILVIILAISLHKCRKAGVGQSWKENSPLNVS

SMILES | IC50 [nM]
N=C(N)c1ccc(NC(c2nn(-c3ncccn3)c(=O)[nH]2)c2cc(OCCF)cc(OCCF)c2F)cc1 (racemic) [Example 98, 4-{[(R) and (S)-[2-fluoro-3,5-bis-(2-fluoroethoxy)phenyl]-(5-oxo-1-pyrimidin-2-yl-4,5-dihydro-1H-[1,2,4]triazol-3-yl)methyl]amino}benzamidine acetate] | 28.7
COc1cc(C(Nc2ccc(C(=N)N)cc2)c2nn(-c3ncccn3)c(=O)[nH]2)cc(C)n1 (racemic) [Example 39, (R) and (S)-4-{[(2-methoxy-6-methyl-pyridin-4-yl)-(5-oxo-1-pyrimidin-2-yl-4,5-dihydro-1H-[1,2,4]triazol-3-yl)methyl]amino}benzamidine acetate] | 20.6
COCc1cc(C(Nc2ccc(C(=N)N)cc2)c2nn(-c3ncccn3)c(=O)[nH]2)cc(OC)c1OC (racemic) [Example 22, (R) and (S)-4-{[(3,4-dimethoxy-5-methoxymethyl-phenyl)-(5-oxo-1-pyrimidin-2-yl-4,5-dihydro-1H-[1,2,4]triazol-3-yl)methyl]amino}benzamidine acetate] | 8.3
COc1cc(C(Nc2ccc(C(=N)N)cc2)c2nn(-c3ccccn3)c(=O)[nH]2)cc2c1OCOC2 (racemic) [Example 213, (R) and (S)-4-{[(8-Methoxy-4H-benzo[1,3]dioxin-6-yl)-(5-oxo-1-pyridin-2-yl-4,5-dihydro-1H-[1,2,4]triazol-3-yl)methyl]amino}benzamidine acetate] | 3.3
COc1cc(C(Nc2ccc(C(=N)N)cc2)c2nn(-c3cccnn3)c(=O)[nH]2)cc2c1OCCCO2 (centres unmarked) [Example 147, 4-{[(9-methoxy-3,4-dihydro-2H-benzo[b][1,4]dioxepin-7-yl)-(5-oxo-1-pyridazin-3-yl-4,5-dihydro-1H-[1,2,4]triazol-3-yl)methyl]amino}benzamidine acetate] | 5.1
CCOc1cc(C(Nc2ccc(C(=N)N)cc2)c2nn(-c3ncccn3)c(=O)[nH]2)ccc1OCC#N (centres unmarked) [Example 114, 4-{[(4-cyanomethoxy-3-ethoxyphenyl)-(5-oxo-1-pyrimidin-2-yl-4,5-dihydro-1H-[1,2,4]triazol-3-yl)methyl]amino}benzamidine trifluoroacetate] | 22.8
COc1cc(C(Nc2ccc(C(=N)N)cc2)c2nn(-c3ncccn3)c(=O)[nH]2)ccc1OCF (racemic) [Example 53, (R) and (S)-4-{[(4-fluoromethoxy-3-methoxyphenyl)-(5-oxo-1-pyrimidin-2-yl-4,5-dihydro-1H-[1,2,4]triazol-3-yl)methyl]amino}benzamidine acetate] | 10.6
CCOc1ccc(F)c(C(Nc2ccc(C(=N)N)cc2)c2nn(-c3ncccn3)c(=O)[nH]2)c1 (racemic) [Example 96, 4-{[(R) and (S)-(5-ethoxy-2-fluorophenyl)-(5-oxo-1-pyrimidin-2-yl-4,5-dihydro-1H-[1,2,4]triazol-3-yl)methyl]amino}benzamidine acetate] | 17
COc1cc(OCCF)c(F)c(C(Nc2ccc(C(=N)N)cc2)c2nn(-c3ncccn3)c(=O)[nH]2)c1 (racemic) [Example 3, (R) and (S)-4-({[2-fluoro-3-(2-fluoroethoxy)-5-methoxyphenyl]-(5-oxo-1-pyrimidin-2-yl-4,5-dihydro-1H-[1,2,4]triazol-3-yl)methyl}amino)benzamidine acetate] | 4.8
COc1cc(C(Nc2ccc(C(=N)N)cc2)c2nn(-c3cccnn3)c(=O)[nH]2)cc2c1OCOC2 (racemic) [Example 150, (R) and (S)-4-{[(8-methoxy-4H-benzo[1,3]dioxin-6-yl)-(5-oxo-1-pyridazin-3-yl-4,5-dihydro-1H[1,2,4]triazol-3-yl)methyl]amino}benzamidine acetate] | 9
COc1cc(C)cc(C(Nc2ccc(C(=N)N)cc2)c2nn(-c3ncccn3)c(=O)[nH]2)c1 (racemic) [Example 93, 4-{[(R) and (S)-(3-methoxy-5-methylphenyl)-(5-oxo-1-pyrimidin-2-yl-4,5-dihydro-1H-[1,2,4]triazol-3-yl)methyl]amino}benzamidine acetate] | 30.3

Further lines, results first:

IC50 [nM] | SMILES
6.9 | CCOC(=O)c1cn[nH]c1-n1nc(C(Nc2ccc(C(=N)N)cc2)c2cc(OC)c(OC)cc2F)[nH]c1=O (centres unmarked) [Example 157d, 5-{3-[(4-carbamimidoylphenylamino)-(2-fluoro-4,5-dimethoxyphenyl)methyl]-5-oxo-4,5-dihydro-[1,2,4]triazol-1-yl}-1H-pyrazole-4-carboxylic acid ethyl ester]
10 | COc1cc(F)c(C(Nc2ccc(C(=N)N)cc2)c2nn(-c3ncccc3OC)c(=O)[nH]2)cc1OC (centres unmarked) [Example 124, 4-({(2-fluoro-4,5-dimethoxyphenyl)-[1-(3-methoxypyridin-2-yl)-5-oxo-4,5-dihydro-1H-[1,2,4]triazol-3-yl]methyl}amino)benzamidine acetate]
10.3 | COc1cc(C(Nc2ccc(C(=N)N)cc2)c2nn(-c3ncccc3N)c(=O)[nH]2)cc(OC)n1 (racemic) [Example 55, (R) and (S)-4-({[1-(3-aminopyridin-2-yl)-5-oxo-4,5-dihydro-1H-[1,2,4]triazol-3-yl]-(2,6-dimethoxypyridin-4-yl)methyl}amino)benzamidine acetate]
41.7 | COc1cc(OCCO)c(F)c(C(Nc2ccc(C(=N)N)cc2)c2nn(-c3ncsc3C(=O)O)c(=O)[nH]2)c1 (centres unmarked) [Example 182, 4-(3-{(4-carbamimidoylphenylamino)-[2-fluoro-3-(2-hydroxyethoxy)-5-methoxyphenyl]methyl}-5-oxo-4,5-dihydro[1,2,4]triazol-1-yl)thiazole-5-carboxylic acid trifluoroacetate]
39.1 | COc1cc(OC)c(F)c(C(Nc2ccc(C(=N)N)cc2)c2nn(-c3cccc(C(=O)O)n3)c(=O)[nH]2)c1 (centres unmarked) [Example 210, 6-{3-[(4-Carbamimidoylphenylamino)-(2-fluoro-3,5-dimethoxyphenyl)methyl]-5-oxo-4,5-dihydro-[1,2,4]triazol-1-yl}pyridine-2-carboxylic acid trifluoroacetate]
9 | COc1cc(F)c(C(Nc2ccc(C(=N)N)cc2)c2nn(-c3nc[nH]c3C(=O)O)c(=O)[nH]2)cc1OC (single isomer, unassigned) [Example 187, 5-{3-[(4-Carbamimidoylphenylamino)-(2-fluoro-4,5-dimethoxyphenyl)methyl]-5-oxo-4,5-dihydro-[1,2,4]triazol-1-yl}-3H-imidazole-4-carboxylic acid]
8.7 | COc1cc(OC)c(F)c(C(Nc2ccc(C(=N)N)cc2)c2nn(-c3cccnn3)c(=O)[nH]2)c1 (racemic) [Example 145, (R) and (S)-4-{[(2-fluoro-3,5-dimethoxyphenyl)-(5-oxo-1-pyridazin-3-yl-4,5-dihydro-1H-[1,2,4]triazol-3-yl)methyl]amino}benzamidine acetate]
11 | COc1cc(F)c(C(Nc2ccc(C(=N)N)cc2)c2nn(-c3cnccn3)c(=O)[nH]2)cc1OC (racemic) [Example 101, 4-{[(R) and (S)-(2-fluoro-4,5-dimethoxyphenyl)-(5-oxo-1-pyrazin-2-yl-4,5-dihydro-1H-[1,2,4]triazol-3-yl)methyl]amino}benzamidine acetate]
15.1 | COc1cc(C(Nc2ccc(C(=N)N)cc2)c2nn(-c3ncccn3)c(=O)[nH]2)cc(C(C)O)c1OC (centres unmarked) [Example 25, 4-({[3-(1-hydroxyethyl)-4,5-dimethoxyphenyl]-(5-oxo-1-pyrimidin-2-yl-4,5-dihydro-1H-[1,2,4]triazol-3-yl)methyl}amino)benzamidine acetate]
7.9 | COc1cc(C(Nc2ccc(C(=N)N)cc2)c2nn(-c3ncsc3C(=O)O)c(=O)[nH]2)c(F)c2c1OCCC2 (racemic) [Example 190, 4-{3-[(R) and (S)-(4-Carbamimidoylphenylamino)-(5-fluoro-8-methoxychroman-6-yl)methyl]-5-oxo-4,5-dihydro-[1,2,4]triazol-1-yl}thiazole-5-carboxylic acid]
3.1 | COc1cc(O[C@@H](C)CO)c(F)c(C(Nc2ccc(C(=N)N)cc2)c2nn(-c3ncccn3)c(=O)[nH]2)c1 (mixture of isomers) [Example 217, (R) and (S)-4-{[[2-Fluoro-3-((S)-2-hydroxy-1-methylethoxy)-5-methoxyphenyl]-(5-oxo-1-pyrimidin-2-yl-4,5-dihydro-1H-[1,2,4]triazol-3-yl)methyl]amino}benzamidine acetate]
23.7 | COc1cc(OC)cc(C(Nc2ccc(C(=N)N)cc2)c2nn(-c3ncsc3C(=O)O)c(=O)[nH]2)c1 (racemic) [Example 232, (R) and (S)-4-{3-[(4-Carbamimidoylphenylamino)-(3,5-dimethoxyphenyl)methyl]-5-oxo-4,5-dihydro-[1,2,4]triazol-1-yl}thiazole-5-carboxylic acid]
11.6 | CCOc1cc(C(Nc2ccc(C(=N)N)cc2)c2nn(-c3ncsc3C(=O)O)c(=O)[nH]2)cnc1OC (single isomer, unassigned) [Example 185, 4-{3-[(4-Carbamimidoylphenylamino)-(5-ethoxy-6-methoxypyridin-3-yl)methyl]-5-oxo-4,5-dihydro-[1,2,4]triazol-1-yl}thiazole-5-carboxylic acid]
17 | COc1cc(F)c(C(Nc2ccc(C(=N)N)cc2)c2nn(-c3ncccc3N)c(=O)[nH]2)cc1OC (centres unmarked) [Example 138, 4-({[1-(3-aminopyridin-2-yl)-5-oxo-4,5-dihydro-1H-[1,2,4]triazol-3-yl]-(2-fluoro-4,5-dimethoxyphenyl)methyl}amino)benzamidine trifluoroacetate]
9 | COc1cc(C(Nc2ccc(C(=N)N)cc2)c2nn(-c3ncccn3)c(=O)[nH]2)c(F)c2c1OCC2 (racemic) [Example 161, (R) and (S)-4-{[(4-fluoro-7-methoxy-2,3-dihydrobenzofuran-5-yl)-(5-oxo-1-pyrimidin-2-yl-4,5-dihydro-1H-[1,2,4]triazol-3-yl)methyl]-amino}benzamidine acetate]
